# Results reported in patent US20060257934A1 (priority 2005, published 2006).
# Read-outs that look alike come from different tables or passages of the source.
# Key:
# [1] = biological target: T1, GABAA receptor (rat α1β2 γ2) (Rattus norvegicus, UniProt P18508+P62813+P63138); assay: cell-based
# T1 construct: expressed in transfected cells
# Experimental: Doubly transfected cell lines were generated that express GABAA receptor (rat α1β2 γ2) together with a yellow fluorescent protein (YFP) Topaz-based halide sensor (46/148/152 mutant).
# Doubly transfected cells were plated onto black-walled, clear-bottomed, poly-D-lysine-coated 384-well plates (Becton Dickinson Biosciences). Prior to the assay, the cell medium was removed and replaced with chloride-free plating medium (CFPM; see the composition below). After the incubation in CFPM for 3-4 hours at 37° C. in a 5% CO2 atmosphere, the medium was removed and replaced with chloride-free assay buffer (CFAB; see the composition below ), containing the final concentrations of test compounds. The cells were incubated for 15-20 minutes in the dark (to preserve fluorescence of the YFP) at room temperature (RT). Once the incubation was complete, the cell plates were transferred to the FLIPR (Molecular Devices Inc., Sunnyvale, Calif.) for the assay.
# YFP was excited with 488 nm wavelength light and the fluorescence measured using a 540/60 nm bandpass emission filter. FLIPR settings were routinely adjusted so that the background fluorescence reading at the beginning of the assay was 20,000-50,000 counts/ms. After measuring a baseline readout of 10 seconds, the stimulus buffer was added to the well and signal was recorded for 2-4 more minutes. The stimulus buffer comprised CFAB, except that the sodium gluconate component was replaced with sodium iodide. Note that the addition of the iodide causes quenching of the fluorescent signal. In the majority of the experiments, the final concentration of sodium iodide in the stimulus buffer was about 5 mM.
# The fluorescence response was corrected for the background fluorescence, as well as for the fluorescence changes, caused by iodide only. […] The initial analysis and data export was done using FLIPR-384 software (Version 1.25).
# Microsoft Excel® was used to plot concentration-response curves and determine an EC50 value. […]
# [2] = system: hippocampal granule cells; conditions: read-out: EC50 for diazepam; cited from earlier work
# [3] = biological target: α1-containing isoforms of the GABA(A) receptor; conditions: read-out: EC50 for diazepam, published electrophysiological recordings; α1-containing isoforms in various expression systems; cited from earlier work
# [4] = system: neuronal-like cell line NT-2 N; conditions: read-out: EC50 for diazepam; cited from earlier work
# T1 sequence (P62813 28-455): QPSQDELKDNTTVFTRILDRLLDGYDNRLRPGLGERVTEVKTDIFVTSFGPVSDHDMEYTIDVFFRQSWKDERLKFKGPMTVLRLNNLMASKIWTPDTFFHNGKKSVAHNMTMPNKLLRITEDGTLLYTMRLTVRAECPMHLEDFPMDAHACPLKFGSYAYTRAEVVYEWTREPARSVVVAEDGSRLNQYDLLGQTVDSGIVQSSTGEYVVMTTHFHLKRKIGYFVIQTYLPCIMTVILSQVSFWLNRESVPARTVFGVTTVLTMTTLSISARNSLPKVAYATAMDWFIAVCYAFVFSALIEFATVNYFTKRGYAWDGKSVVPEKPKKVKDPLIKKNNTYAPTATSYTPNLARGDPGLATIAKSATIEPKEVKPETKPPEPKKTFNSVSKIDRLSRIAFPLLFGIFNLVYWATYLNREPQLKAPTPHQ
# T1 sequence (P63138 25-474 limits assumed): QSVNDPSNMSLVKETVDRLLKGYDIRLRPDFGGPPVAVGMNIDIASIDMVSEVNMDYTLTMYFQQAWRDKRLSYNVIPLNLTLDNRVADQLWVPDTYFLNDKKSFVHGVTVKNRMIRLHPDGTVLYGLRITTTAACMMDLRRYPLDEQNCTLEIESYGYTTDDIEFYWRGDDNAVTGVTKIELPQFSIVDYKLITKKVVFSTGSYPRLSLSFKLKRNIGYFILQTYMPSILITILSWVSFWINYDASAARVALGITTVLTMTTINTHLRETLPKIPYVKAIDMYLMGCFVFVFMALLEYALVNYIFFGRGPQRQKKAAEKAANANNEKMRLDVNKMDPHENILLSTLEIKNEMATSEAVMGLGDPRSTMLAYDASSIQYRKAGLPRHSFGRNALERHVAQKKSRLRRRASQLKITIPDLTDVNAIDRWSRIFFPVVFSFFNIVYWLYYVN
# T1 sequence (P18508 39-466): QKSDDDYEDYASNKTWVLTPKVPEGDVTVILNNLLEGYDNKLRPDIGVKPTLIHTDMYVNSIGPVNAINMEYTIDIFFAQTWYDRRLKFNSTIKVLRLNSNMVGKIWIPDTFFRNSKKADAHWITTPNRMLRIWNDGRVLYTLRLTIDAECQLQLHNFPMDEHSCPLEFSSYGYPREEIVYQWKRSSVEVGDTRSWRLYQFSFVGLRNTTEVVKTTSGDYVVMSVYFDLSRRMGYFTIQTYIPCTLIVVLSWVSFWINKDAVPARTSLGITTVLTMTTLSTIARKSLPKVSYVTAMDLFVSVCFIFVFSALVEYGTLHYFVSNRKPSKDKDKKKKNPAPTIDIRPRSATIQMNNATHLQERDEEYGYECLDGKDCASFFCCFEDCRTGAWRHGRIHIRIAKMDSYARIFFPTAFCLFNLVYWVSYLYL
smiles,measurement,setting,value
CN1CCc2cc3c(cc2[C@H]1[C@@H]1OC(=O)c2c1ccc1c2OCO1)OCO3 [bicuculline],IC50,[1],4700 ± 900 nM
CN1C(=O)CN=C(c2ccccc2)c2cc(Cl)ccc21 [diazepam],EC50,[2],122 nM
same,EC50,[3],53 to 70 nM
same,Effect on GABA-induced fluorescent signal,[1],concentration-dependent increase
same,EC50,[4],74 nM
CC(=O)[C@H]1CC[C@H]2[C@@H]3CC[C@H]4C[C@H](O)CC[C@]4(C)[C@H]3CC[C@]12C [allopregnanolone],Effect on GABA-induced fluorescent signal,[1]; against constant GABA 0.25 μM,concentration-dependent increase
